Test results taken from PMC9570838, “JND4135, a New Type II TRK Inhibitor, Overcomes TRK xDFG and Other Mutation Resistance In Vitro and In Vivo” (Molecules, 2022).

Columns and labels:
TRKC WT [1] = biological target: T1, TRKC WT (Homo sapiens, UniProt Q16288); experiment: Bio-layer interferometry (BLI) Octet binding assay
T1 construct: residues 526–839 from the kinase domain; made in house
Description: (§1) Biolayer interferometry (BLI) assays were performed with the Octet K2 machine (ForteBio, Inc., Fremont, CA, USA). […] Excess biotin was removed by column chromatography (PD MiniTrap^TM G-25 Desalting column, Lot#17030445), and the residue was diluted to 400 μL with PBS and immobilized onto Super streptavidin biosensor chips (ForteBio, Cat#18–5057). A duplicate set of sensors was incubated in an assay buffer (PBS containing 0.02% Tween20 and 0.1% BSA) with 5% DMSO but without protein for use as a background binding control. Both sets of sensors were blocked with a solution of 10 μg/mL biocytin for 1 min at rt. Drug concentrations ranged from 0.74 to 180 nmol/L (6 doses). Data was analyzed by the FortéBio Data Analysis 8.1 software (FortéBio, Fremont, CA, USA) using a double reference subtraction (sample and sensor references).

TRKC WT [2] = experiment: Bio-layer interferometry (BLI) Octet binding assay; set-up: species or system Human; details: TRKC-WT and TRKC-G696C
Description: as §1

TRKC-G696C = biological target: T2, TRKC-G696C (Homo sapiens, UniProt Q16288, G696C); experiment: Bio-layer interferometry (BLI) Octet binding assay
T2 construct: residues 526–839 from the kinase domain; made in house
Description: Biolayer interferometry (BLI) assays were performed with the Octet K2 machine (ForteBio, Inc., Fremont, CA, USA). […] A duplicate set of sensors was incubated in an assay buffer (PBS containing 0.02% Tween20 and 0.1% BSA) with 5% DMSO but without protein for use as a background binding control. Both sets of sensors were blocked with a solution of 10 μg/mL biocytin for 1 min at rt. […] Data was analyzed by the FortéBio Data Analysis 8.1 software (FortéBio, Fremont, CA, USA) using a double reference subtraction (sample and sensor references).

[3] = tested on: BaF3-CD74-TRKA-G595R cells (p-TRKA, ERK, PLCγ); experiment: Western blot of TRK signaling; type: cell-based, Murine; details: 6 h treatment
Description: (§2) Cells were treated with various concentrations of each tested compound for a designated time. Then cells were lysed using 1 × SDS sample lysis buffer (CST recommended) with protease and phosphatase inhibitors. […] The films were blocked with 5% fat-free milk in TBS solution containing 0.5% Tween-20 for 4 h at room temperature, then incubated with the corresponding primary antibody (1:1000–1:200) overnight at 4 °C. After washing with TBST, HRP-conjugated secondary antibody was incubated for 2 h. The protein signals were visualized by ECL Western Blotting Detection Kit (Thermo Scientific, Waltham, MA, USA), and detected with Amersham Imager 600 system (GE, Boston, MA, USA).

[4] = tested on: BaF3-CD74-TRKA-G667C cells (p-TRKA, ERK, PLCγ); experiment: Western blot of TRK signaling; type: cell-based, Murine; details: 6 h treatment
Description: as §2

[5] = tested on: BaF3-CD74-TRKA-WT cells (p-TRKA, ERK, PLCγ); experiment: Western blot of TRK signaling; type: cell-based, Murine; details: 6 h treatment
Description: as §2

TRKB = biological target: T3, TRKB (Homo sapiens, UniProt Q16620); experiment: FRET-based Z'-Lyte kinase assay; type: biochemical; details: mean ± SD, read-out: IC50 TRKB kinase inhibition
T3 construct: purchased Invitrogen
Description: (§3) TRKA/B/C and the Z′-Lyte Kinase Assay Kit were purchased from Invitrogen. Assays were performed according to the manufacturer’s instructions. […] The solutions of the compounds were diluted from 10^−10 M to […] in DMSO and a 400 μM solution of the compound was prepared with 4 μL of the solution of the compound dissolved in 96 μL water. […] For each assay, 10 μL of a kinase solution, including 2.5 μL of the compound solution, 5 μL of the kinase/peptide mixture, and 2.5 μL of the ATP solution was prepared. The plate wells were mixed thoroughly and incubated for 1 h at room temperature (rt). Then 5 μL of the development solution was added to each well and the plate was incubated for 1 h at rt; the […] were cleaved in this time. Finally, 5 μL of stop reagent was added to stop the reaction. For the control setting, 5 μL of the phosphopeptide solution instead of the kinase/peptide mixture was used as a 100% phosphorylation control. […] The plate was measured on an EnVision Multilabel Reader (Perkin-Elmer). Curve fitting and data presentation was performed using GraphPad Prism, version 5.0. Every experiment was repeated at least 2 times.

TRKC = biological target: T4, TRKC (Homo sapiens, UniProt Q16288); experiment: FRET-based Z'-Lyte kinase assay; type: biochemical; details: mean ± SD, read-out: IC50 TRKC kinase inhibition
T4 construct: purchased Invitrogen
Description: as §3

TRKA-G667C = TRKA-G667C (Homo sapiens, UniProt P04629, G667C); experiment: FRET-based Z'-Lyte kinase assay; type: biochemical
Description: as §3

BaF3 ETV6-TRKC-G623R = experiment: BaF3 cell proliferation, CCK-8 assay; details: Mus musculus, BaF3, 72 h, read-out: IC50 (nM ± SD) Solvent Front ETV6-TRKC-G623R
Description: (§4) Murine BaF3 cells were purchased from JRCB cell bank. The BaF3 cell lines, which stably express natively-fused TRKA/B/C or various point mutants, were self-established by following previously described procedures. Briefly, NTRK genes were totally synthesized and cloned into pCDNA3.1(+) vectors (Invitrogen, Carlsbad, CA, USA). […] Stable strains were established by selection of cells 2 weeks post-transfection with 800 μg/mL G418 (Merck, Whitehouse Station, NJ) and further selection after the withdrawal of interleukin-3 (IL-3, R&D) for 2 weeks. All of BaF3 stable cell lines were verified by DNA sequencing, protein expression and anti-proliferation activity against positive drugs. […] All cells were grown at 37 °C in a humidified 5% CO2 atmosphere.
(§5) Cells were placed in 96-well plates (5000~8000/well) in complete medium. […] IC50 values were calculated by concentration-response curve fitting using GraphPad Prism 5.0 software. Each IC50 value is expressed as mean ± SD.

BaF3 ETV6-TRKC = experiment: BaF3 cell proliferation, CCK-8 assay; details: Mus musculus, BaF3, 72 h, read-out: IC50 (nM ± SD) WT ETV6-TRKC
Description: as §4, §5

SMILES: Cc1c(C#Cc2cnc3cnc(-c4ccc(N)cc4)cn23)cccc1C(=O)Nc1cc(CN2CCN(C)CC2)cc(C(C)C)c1 [JND4135, 3-((6-(4-aminophenyl)imidazo[1,2-a]pyrazin-3-yl)ethynyl)-N-(3-isopropyl-5-((4-methylpiperazin-1-yl)methyl)phenyl)-2-methylbenzamide]
- koff (TRKC WT [1]; Koff, read-out: dissociation rate with TRKC-WT): 0.000278 s⁻¹
- Kd (TRKC WT [1]; read-out: Kd, binding affinity to TRKC-WT): 2.57 nM
- fold slower dissociation rate than that of control drugs (TRKC WT [2]): 3.81–27.85 fold
- koff (TRKC-G696C; Koff, read-out: dissociation rate with TRKC-G696C): 0.00135 s⁻¹
- Kd (TRKC-G696C; read-out: Kd, binding affinity to TRKC-G696C): 3.68 nM
- concentration from which phosphorylation of TRKA and downstream ERK, PLCγ decreased [3]: 40 nM
- concentration from which phosphorylation of TRKA and downstream ERK, PLCγ decreased [4]: 1.6 nM
- concentration from which phosphorylation of TRKA and downstream ERK, PLCγ decreased [5]: 8 nM
- IC50 (TRKB): 3.19 ± 1.76 nM
- IC50 (TRKC): 3.01 ± 0.43 nM
- fold stronger kinase inhibition of TRKA-G667C than TRKA-WT (TRKA-G667C): 3.3 fold
- IC50 (TRKA-G667C; Z'-Lyte, mean ± SD, read-out: IC50 TRKA-G667C kinase inhibition): 0.83 ± 0.06 nM
- IC50 (BaF3 ETV6-TRKC-G623R): 9.4 ± 2.6 nM
- IC50 (BaF3 ETV6-TRKC): 10.4 ± 4 nM
